In patent US20230181569A1, “COMPOSITIONS AND METHODS TO TREAT POLYCYSTIC KIDNEY DISEASE” (Board of Supervisors of Louisiana State University and …, priority 2020, published 2023):
Like-named read-outs stand apart in the source and are kept apart here.

Columns and labels:
Sprague-Dawley rats = settings: cited from earlier work; for urine output: Sprague-Dawley rats; for sedation and hyperphagia: rat, in vivo
[1] = in vivo; cited from earlier work
Pkd1 RC/RC mice = assay: Chronic daily oral gavage of KOA in Pkd1 RC/RC mice (Example 1, Studies 1 and 2); format: in vivo; settings: daily oral gavage 4 or 8 weeks; for fibrosis area in the kidney / serum creatinine and blood urea levels / cyst size and numbers: Pkd1 RC/RC mice; for cyst size and numbers: 5 mg/kg JT-09 or 100 µg/kg nalfurafine; for GFR: mice with PKD
Method: Pkd1 RC/RC mice were used as the polycystic kidney disease model. 12 weeks old mice were given a KOA treatment (JT-09 or nalfurafine) or a vehicle at a dose of 5 mg/kg for JT-09 or 100 µg/kg for nalfurafine daily for 4 or 8 weeks.
Group 1: Pkd1 RC/RC mice + treatment (JT09 or nalfurafine) oral gavage (5 mg/kg for JT-09 or 100 µg/kg for nalfurafine) daily. n=24
Group 2: Pkd1 RC/RC mice + vehicle oral gavage daily. n=24
At 16 weeks old, 12 mice from both groups 1 and 2 were selected. These mice were each placed in a metabolic cage to collect urine for three 24-hour periods (a total of 72 hours). Each mouse was placed in a separate metabolic cage, as opposed to all mice in a single metabolic cage. Daily water intake for each mouse is also recorded. Mice were then deep anesthetized, and blood was be taken from their artery. Mice were then sacrificed. Both kidneys were perfused with PBS and fixed in neutral buffered formalin. Kidneys were processed for paraffin embedding and sectioning. H&E and picrosirus stain were performed on each section. Cystic index including cysts size and number were evaluated by a pathologist. Fibrosis was evaluated by the pathologist as well; in addition, a fibrotic score was given. The serum creatinine and blood urea level in the blood was then measured.
At 20 weeks old, the other set of 12 mice in both groups was then sacrificed and the same experiment was be performed as described herein.
At 16 weeks old, 12 mice from each group were anesthetized. The right jugular vein was catheterized for inulin infusion, and the bladder was catheterized for urine collection. GFR was evaluated based on the excretion rate of FITC-sinistrin.
At 20 weeks old, the same GFR measure was be repeated on the other 12 mice from each group.

[2] = cited from earlier work
Sprague Dawley rats = assay: Stability of drug dissolved in drinking water, read out as urine output in rats; format: in vivo
Method: Day 1, the fresh made drug was given to rats. Day 4, the drug made on day 1 was given to the same rats. Veh, vehicle; Nal, nalfurafine. n=3 for each group.
Route of administration: Drug will be given orally in drinking water. We have performed a study to test the stability of the drug. […] We then left this water bottle at room temperature for three days, and we then gave this water to the same rats again. […] Therefore, the drug is stable for 3 days when it is dissolved in water at room temperature. We will make fresh nalfurafine in drinking water every 3 days in the chronic studies in both Aim 1 and Aim 2. We will give another group of mice the standard care of tolvaptan to serve as comparison of the treatment.

kappa receptors = kappa receptors (Homo sapiens, UniProt P41145); settings: cited from earlier work
patients [3] = settings: cited from earlier work
affected skin = settings: atopic dermatitis and pruritus; cited from earlier work
Pkd1^RC/RC mice = assay: Acute oral gavage of nalfurafine, urine output in PKD mice; format: in vivo
Method: Volume expansion, give mice saline at the dose of 20 ml/kg. (b) dose responsive curve of nalfurafine in Pkd1^RC/RC mice. Y axis, accumulative urine output of 5 hours after dosing. n=7-10 in each group.
ADPKD patients have an elevated level of vasopressin. Based on this observation, tolvaptan was discovered and later approved by its mechanism of action of blocking V2 receptors on the distal tubules. However, this also leads to the side effect of polyuria and severe thirst. […] Therefore, the long-term effects by nalfurafine on urine output can be limited unlike tolvaptan.
Therefore, we will give PKD mice nalfurafine daily at the maximum responsive dose 240 ug/kg/day for chronic studies in both Aim 1 and Aim 2 to obtain the greatest benefits.

WT mice = assay: Oral gavage of nalfurafine, urine output in wild type mice; format: in vivo
Method: The dose volume is 20 ml/kg.
Polycystic kidney disease (PKD) affects one person in every 400 to 1000 people in the U.S., which is associated with substantial mortality. […] There is no cure for PKD, and currently only one treatment is available to delay progression: tolvaptan, a vasopressin V2 receptor antagonist. This drug is expensive and indicated only in some patients who are at high risk for progression. The efficacy of tolvaptan proves that an active vasopressin pathway plays a critical role in this disease progression. However, the drug carries risk of severe hepatic toxicity, and patients treated with tolvaptan are suffering serious side effects, such as severe thirst and polyuria due to inhibition of V2 receptor in the distal nephrons. […] In addition to their inhibitory effect on vasopressin secretion and subsequent diuretic effect, KOAs can produce an anti-inflammatory micro-environment at the cellular level, which protects cardiac tissue from fibrosis.

patients [4] = settings: patients treated with tolvaptan; cited from earlier work
[5] = cited from earlier work; remark: listed apart in the source
patients [6] = settings: human trials; cited from earlier work
conscious rats = settings: cited from earlier work
[7] = i.c.v. or i.v. infusion, conscious rats

Chain of kappa receptors (P41145 whole entry): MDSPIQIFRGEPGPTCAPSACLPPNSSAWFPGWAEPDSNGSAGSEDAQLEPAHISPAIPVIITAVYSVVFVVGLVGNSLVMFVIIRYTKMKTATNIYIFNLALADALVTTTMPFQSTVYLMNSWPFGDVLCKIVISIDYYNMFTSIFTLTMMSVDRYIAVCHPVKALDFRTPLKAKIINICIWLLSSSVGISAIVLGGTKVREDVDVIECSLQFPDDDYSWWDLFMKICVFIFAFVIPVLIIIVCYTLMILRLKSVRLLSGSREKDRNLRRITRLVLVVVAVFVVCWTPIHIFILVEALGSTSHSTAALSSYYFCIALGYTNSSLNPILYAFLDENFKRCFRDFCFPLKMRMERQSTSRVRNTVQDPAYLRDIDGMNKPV

CC(C)C1CCC(N2CCC(N3C(=O)C(=O)c4ccccc43)CC2)CC1 (centres unmarked) [AT-090]
urine output (Sprague-Dawley rats): increase urine output | sedation and hyperphagia (Sprague-Dawley rats): sedation and hyperphagia

CC(C)C1CCC(N2CCC(N3C(=O)/C(=N\O)c4ccccc43)CC2)CC1 (centres unmarked) [AT-127]
urine output (Sprague-Dawley rats): increase urine output | sedation and hyperphagia (Sprague-Dawley rats): sedation and hyperphagia

CC(C)C1CCC(N2CCC(n3c(CO)c(CO)c4ccccc43)CC2)CC1 (centres unmarked) [AT-390]
urine output (Sprague-Dawley rats): increase urine output

CNC(=O)CC1C(=O)N(C2CCN(C3CCC(C(C)C)CC3)CC2)c2ccccc21 (centres unmarked) [AT-403]
urine output (Sprague-Dawley rats): increase urine output | sedation and hyperphagia (Sprague-Dawley rats): sedation and hyperphagia

CCCC[C@@H](NC(=O)[C@@H](Cc1ccccc1)NC(=O)[C@H](N)Cc1ccccc1)C(=O)N[C@H](CCCCN(C)C)C(=O)NCc1ccncc1 [JT09]
serum creatinine levels [1]: reduces serum creatinine levels | urine output [1]: increases urine output | fibrosis area in the kidney (Pkd1 RC/RC mice): reduce fibrosis area in the kidney | serum creatinine and blood urea levels (Pkd1 RC/RC mice): decrease serum creatinine and blood urea levels | cyst size and numbers (Pkd1 RC/RC mice): decrease cyst size and numbers | GFR (Pkd1 RC/RC mice): improve GFR

CN(C(=O)/C=C/c1ccoc1)[C@@H]1CC[C@@]2(O)[C@H]3Cc4ccc(O)c5c4[C@@]2(CCN3CC2CC2)[C@H]1O5 [nalfurafine]
half life ([2]; healthy volunteers): 8 h | half life ([2]; hemodialysis patients): 10 to 15 h | diuresis after fresh drug dissolved in water (Sprague Dawley rats; rats, first day, 30 ug/kg single dose): produced diuresis | magnitude of increase in urine output, day 4 versus day 1 (Sprague Dawley rats; same rats, drug solution kept at room temperature for three days): the same on day 4 as it was on day 1 | stability when dissolved in water at room temperature (Sprague Dawley rats; water, room temperature): 3 days | selectivity for kappa receptors (kappa receptors): highly selective for kappa receptors | polyuria as a side effect (patients [3]; clinical trials of nalfurafine): none of the clinical trials of nalfurafine have reported polyuria | CNS-mediated side effects of traditional opioids (nausea/vomiting, sedation, respiratory depression, abuse potential, addiction, euphoria) (patients [3]; human, in vivo): does not produce the CNS-mediated side effects | extreme thirst and polyuria (patients [3]; one year post-marketing surveillance study): does not cause extreme thirst nor polyuria | insomnia (worst side effect), share of patients (patients [3]; post marketing analysis of 3,762 patients): approximately 3% | infiltration of CD4+ and CD8+ T cells (affected skin): reduced infiltration of CD4+ T cells and CD8+ T cells in the affected skin | dose dependence of the increase in urine output (Pkd1^RC/RC mice; Pkd1^RC/RC mice, accumulative urine output of 5 hours after dosing): dose dependent | dose with the greatest increase in 5-hour urine output (Pkd1^RC/RC mice; Pkd1^RC/RC mice, doses of 100, 130, 180, 240 and 320 ug/kg): 0.24 mg/kg | highest effective dose in acute study (Pkd1^RC/RC mice; acute study): 0.24 mg/kg | urine output compared with vehicle treatment (Pkd1^RC/RC mice; oral administration, mice with PKD, within the 3 hours after dosing (FIG. 24a: 240 ug/kg)): significant increase in urine output | behavioral or adverse effects (WT mice; mouse, in vivo): does not produce any apparent behavioral or adverse effects | urine output (WT mice; oral gavage, wild type mice): marked increase in urine output | fibrosis area in the kidney (Pkd1 RC/RC mice): reduce fibrosis area in the kidney | serum creatinine and blood urea levels (Pkd1 RC/RC mice): decrease serum creatinine and blood urea levels | cyst size and numbers (Pkd1 RC/RC mice): decrease cyst size and numbers | GFR (Pkd1 RC/RC mice): improve GFR

Cc1ccccc1C(=O)Nc1ccc(C(=O)N2CCCC(O)c3cc(Cl)ccc32)c(C)c1 (centres unmarked) [tolvaptan]
undesirable side effects (patients [4]): severe thirst, polyuria and hepatic toxicity | water solubility [5]: poor water solubility

Ac—Arg—Tyr—Tyr—Arg—Trp—Lys—Lys—Lys—Lys—Lys—Lys—Lys—NH2 (Ac-RYYRWKKKKKKK-NH2) [ZP120, peptide NOP receptor partial agonist]
blood pressure (patients [6]): efficacious in lowering blood pressure

nociceptin (FGGFTGARKSARKLANQ; Nociceptin; UniProt Q13519 130-146, looked up) [17 amino acid peptide, classical ligand of the nociceptin opioid peptide receptor]
circulating levels of vasopressin (conscious rats; administered centrally): reduces circulating levels of vasopressin | blood pressure, heart rate and peripheral sympathetic nerve activity (conscious rats; centrally (i.c.v.) or at high doses peripherally (i.v. bolus or infusion)): decreases blood pressure, heart rate and peripheral sympathetic nerve activity | urinary sodium excretion (conscious rats; [7]): decrease in urinary sodium excretion | urine flow rate (conscious rats; [7]): marked increase in urine flow rate
